Results from patent publication US10814036B2, “Drug-eluting live tissue for transplantation” (BAYLOR UNIVERSITY, priority 2016, dated 2020).
“Also recorded” adds a separate entry of the source.

Key:
TLR4 [1] = target: T1, TLR4 (Mus musculus, UniProt Q9QUK6); assay: LPS challenge of drug-eluting mouse islets, IL-6 expression (Example 15); type: cell-based; details: for protection from LPS challenge (IL-6 expression): 24 h after modification or treatment
T1 construct: from tissue; host or cells: pancreatic islets of C57BL/6 mice
T1 sequence (Q9QUK6 26-835): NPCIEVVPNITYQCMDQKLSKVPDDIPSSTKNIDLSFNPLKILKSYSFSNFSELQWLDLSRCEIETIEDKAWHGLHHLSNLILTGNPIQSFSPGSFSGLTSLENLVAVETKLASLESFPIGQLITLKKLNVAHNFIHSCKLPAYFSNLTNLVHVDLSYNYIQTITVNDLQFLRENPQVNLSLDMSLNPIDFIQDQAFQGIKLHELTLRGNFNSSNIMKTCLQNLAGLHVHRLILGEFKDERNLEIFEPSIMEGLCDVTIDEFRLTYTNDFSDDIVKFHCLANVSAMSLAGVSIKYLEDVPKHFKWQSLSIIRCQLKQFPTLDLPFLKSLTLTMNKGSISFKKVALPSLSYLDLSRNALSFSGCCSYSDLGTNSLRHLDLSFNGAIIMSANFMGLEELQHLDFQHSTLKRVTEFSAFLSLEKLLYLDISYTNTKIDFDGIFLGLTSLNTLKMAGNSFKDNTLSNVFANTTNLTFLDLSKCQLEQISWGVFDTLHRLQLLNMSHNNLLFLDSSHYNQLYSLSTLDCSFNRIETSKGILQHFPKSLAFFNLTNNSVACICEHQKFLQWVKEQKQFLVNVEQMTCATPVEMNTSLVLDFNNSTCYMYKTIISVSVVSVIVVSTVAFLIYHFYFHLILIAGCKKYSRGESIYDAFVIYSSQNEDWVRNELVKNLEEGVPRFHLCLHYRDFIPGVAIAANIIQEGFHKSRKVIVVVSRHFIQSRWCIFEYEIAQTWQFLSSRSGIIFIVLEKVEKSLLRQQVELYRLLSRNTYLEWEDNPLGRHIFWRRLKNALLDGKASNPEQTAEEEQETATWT
Protocol: (§1) In order to study the function and efficacy of the cleavable prodrug, in vitro experiments were performed challenging mouse islets with LPS at different times post-modification. […] HEK Blue hTLR4 reporter cells were treated with either free TAK-242 or the TAK-PhSO2-Linker prodrug, followed by LPS challenge.
(§2) Data represented as means±SEM (n=3 per group). Statistical significance determined by two-tailed unpaired t test. n.s. means not significant.

TLR4 [2] = target: T1, TLR4; assay: rHMGB1 challenge of mouse islets, gene expression analysis; type: cell-based, C57BL/6 mice; details: 1 μg/mL rHMGB1, 4 h, TAK-242 pretreatment
Protocol: Similar results were observed when islets were challenged with high-mobility group box 1 (HMGB1; FIG. 26), an endogenous damage-associated molecular pattern (DAMP) known to elicit acute inflammation through TLR4. […] Islets from C57BL/6 mice were challenged with 1 μg/mL rHMGB1 with or without TAK-242 pretreatment. After 4 h, total RNA was isolated from the islets for gene expression analysis. The proinflammatory genes (A) CXCL10 and (B) CCL2 were examined in the samples. Data represented as means±SEM. *P<0.05 (n=3 for all samples, unpaired two-tailed t test).

hTLR4 = target: T2, hTLR4 (Homo sapiens, UniProt O00206); assay: HEK Blue hTLR4 reporter cells, TLR4-mediated NFkB upregulation, colorimetric assay; type: cell-based; details: brief treatment, unconjugated compound
T2 construct: expressed in transfected cells; host or cells: HEK Blue hTLR4 reporter cells
Protocol: as §1, §2

TLR4 [3] = target: T1, TLR4; assay: Extended protection of modified islets, IL-6 mRNA after LPS challenge (Example 5); type: cell-based, murine; details: LPS 2 ug/mL 4 hrs, 24 hrs after treatment or islet modification; unprotected islets ~59-fold
Protocol: Compared to free TAK-242 pre-treatment, the TAK-Linker compound covalently attached to the islet surface provides extended protection.
First, islets were modified with either TAK-Linker or TAK-HexOH (1 hr NHS-DBCO followed by 1 hr TAK compounds), or treated with free TAK-242 (3 uM, 30 min @37° C.). All islets were rinsed with culture media (RPMI 1640, 10% FBS) prior to culturing. After overnight culture, the treated groups were challenged with LPS (2 ug/mL, 4 hrs @ 37° C.), a TLR4-specific agonist, and compared to unprotected islets (LPS) and unprotected/untreated control islets.
Total RNA was isolated from the islets for mRNA analysis. The gene expression of cytokine IL-6 was used for evaluation due to its key role in acute inflammation.

TLR4 [4] = details: human and murine models; depending on cell type; read-out: TLR4 inhibition IC50; cited from earlier work
[5] = system: streptozotocin-induced diabetes; assay: Syngeneic islet transplant in streptozotocin-induced diabetic mice; type: in vivo, C57BL/6 mice
Protocol: With the promising in vitro results described above, islet transplantation experiments were performed in a syngeneic wild-type C57BL/6 streptozotocin-induced diabetes model. Recipient male C57BL/6 mice 6-7 weeks old were made diabetic by a single intraperitoneal injection of streptozotocin (200 mg/kg; Sigma-Aldrich). Diabetic mice are defined as having a nonfasting blood glucose >400 mg/dL for 2 consecutive days. Prior to transplantation, islets were untreated, pretreated with 3 μM TAK-242, or modified with TAK-PhSO2-Linker as described above. Diabetic C57BL/6 mice were anesthetized under isofluorane, and a field between the rib cage and pelvis on the left side was disinfected by 1% providone iodine scrub and 70% ethanol. A minimal incision (˜8 to 10 mm) into the peritoneum was made to expose the kidney, and a small cut (˜2 mm) was made in the kidney capsule using a 30G needle. Then a flame-blunted glass pipette tip was inserted into the kidney capsule through the cut to create a pocket between the renal cortex and capsule. Islets were then injected into the pocket via PE-50 polyethylene tubing (Becton Dickinson) connected to a 1 mL syringe filled with RPMI 1640 driven by an NE-300 syringe pump (New Era Pump Systems). At the completion of islet infusion, the incision was closed with 4-0 violet monofilament (Ethicon) via continuous nonlocking sutures. After closing, mice received a 0.1 mg/kg bolus of buprenorphine subcutaneously near the incision. Engraftment success was measured by nonfasting blood glucose measurements 5 times a week over a 4-week period with a Breeze 2 Glucose Monitor (Bayer). Mice were considered cured on the first day of two consecutive glucose measurements below 200 mg/dL (˜11 mM).
Diabetic mice were separated into untreated (n=4), TAK-242 (n=6), and TAK-PhO2-Linker (n=6) groups. A marginal dose of ˜100 islets was determined by titrating doses of TAK-242-treated islets. […] Diabetic C57BL/6 mice were transplanted with (FIG. 33A) 200, (FIG. 33B) 150, or (FIG. 33C) 100 TAK-242-treated islets. Blood glucose was monitored for 4 weeks before IPGTT on day 30 and at nephrectomy on day 35. […] This marginal dose was transplanted into the kidney subcapsular space in each group, and blood glucose was monitored for 4 weeks.

MIN6 cells = assay: MTT viability assay in MIN6 beta cells; type: cell-based; details: days 1, 3 and 7, effective concentrations
Protocol: MIN6 cells were seeded in a 96-well plate at 15,000 cells per well in RPMI. After overnight culture, culture media was replaced with media containing the indicated TAK-242 concentrations. The control (0 nM TAK-242) contained 0.1% DMSO. Media was changed on day 3. On days 1, 3, and 7, an MTT viability assay was performed. Data are represented as means±SEM. P>0.05 for all samples (one-way ANOVA with Tukey's multiple-comparisons test).

TLR4 [6] = target: T1, TLR4; assay: LPS challenge of mouse islets, RT-PCR gene expression and multiplex cytokine analysis; type: cell-based, C57BL/6 mice
Protocol: To initially investigate whether free TAK-242 can protect islets from TLR4-mediated inflammation, inflammatory responses in islets from C57BL/6 mice challenged with the canonical TLR4 ligand lipopolysaccharide (LPS) were examined. As discussed in detail below, islets were treated with TAK-242 (3 μM for 30 min) before a 24-h challenge with a high dose of LPS (2 μg/mL). After 24 h, culture media was analyzed by multiplex assay, and mRNA was isolated from islet cells for analysis by real-time polymerase chain reaction (RT-PCR).
Materials and Methods. After overnight culture, islets were washed in Dulbecco's PBS (Caisson Labs, Smithfield, Utah, USA) before treatment with TAK-242 (3 μM, 30 min; MedchemExpress) and 2 μg/mL LPS-EB (Ultrapure from Escherichia coli O111:B4; Invivogen) for 24 h at 37° C. and 5% CO2. Islets were washed once with cold Dulbecco's PBS immediately after treatment, and total RNA was isolated from samples using TRIzol […] and converted to cDNA using a high capacity cDNA reverse transcription kit (Applied Biosystems) following manufacturer protocols. Quantitative expression of genes of interest was determined using RT2 SYBR Green qPCR master mix (Qiagen) on a Bio-Rad CFX Connect (Bio-Rad) with the following program: 95° C., 10 min and 40 cycles of 95° C., 15 sec, 60° C., 1 min. Primers for quantitative real-time PCR analysis were purchased from commercially available stock from Integrated DNA Technologies (Coralville). Relative gene expression was calculated using the 2-ΔΔCT method normalized to 18S mRNA. Cytokines from assay culture media were analyzed using Milliplex MCYTOMAG-70K Assay (EMD Millipore). Samples were prepared following manufacturer guidelines. Analysis was performed after overnight incubation at 4° C. on a Luminex 200 (Luminex). Samples were assayed in triplicate and analyzed in triplicate for cDNA or in duplicate for multiplex assay.

[7] = Linker prodrug stability and release kinetics in PBS by LC-MS; type: physicochemical; details: phosphate-buffered saline; PBS pH 7.4, 37° C.; read-out: half-life of TAK-PhSO2-Linker (release of free TAK-242) (converted)
Protocol: The stability of the linker prodrug was explored in this example. The TAK-PhSO2-Linker compound was incubated in phosphate-buffered saline (PBS; pH 7.4) at 37° C., and the solution sampled over the course of several days. Liquid chromatography-mass spectrometry (LC-MS) was used to identify and quantitate the compounds released from this prodrug.

T2 sequence (O00206 24-839): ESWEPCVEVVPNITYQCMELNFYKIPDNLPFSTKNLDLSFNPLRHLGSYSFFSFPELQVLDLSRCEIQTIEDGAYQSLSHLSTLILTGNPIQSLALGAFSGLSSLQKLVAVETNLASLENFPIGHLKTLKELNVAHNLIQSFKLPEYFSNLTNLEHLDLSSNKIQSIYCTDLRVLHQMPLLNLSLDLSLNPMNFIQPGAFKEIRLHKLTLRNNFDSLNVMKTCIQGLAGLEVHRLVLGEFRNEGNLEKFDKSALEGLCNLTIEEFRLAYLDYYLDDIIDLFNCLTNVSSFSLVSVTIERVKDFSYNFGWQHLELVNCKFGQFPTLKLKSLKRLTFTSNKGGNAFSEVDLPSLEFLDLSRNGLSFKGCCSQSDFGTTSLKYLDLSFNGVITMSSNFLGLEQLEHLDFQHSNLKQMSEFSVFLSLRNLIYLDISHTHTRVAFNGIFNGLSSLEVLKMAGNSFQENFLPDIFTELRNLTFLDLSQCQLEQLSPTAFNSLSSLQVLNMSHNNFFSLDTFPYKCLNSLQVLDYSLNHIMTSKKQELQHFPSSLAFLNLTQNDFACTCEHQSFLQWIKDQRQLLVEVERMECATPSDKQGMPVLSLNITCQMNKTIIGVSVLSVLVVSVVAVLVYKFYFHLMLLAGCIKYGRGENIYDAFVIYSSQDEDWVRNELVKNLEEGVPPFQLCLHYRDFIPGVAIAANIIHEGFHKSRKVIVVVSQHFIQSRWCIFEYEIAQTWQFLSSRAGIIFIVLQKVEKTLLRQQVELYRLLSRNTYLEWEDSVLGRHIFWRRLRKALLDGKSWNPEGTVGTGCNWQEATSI

Structure (SMILES) | protection against LPS-mediated inflammation (IL-6) (TLR4 [1]; islet surfaces functionalized only, no prodrug) | CXCL10 and CCL2 gene expression after rHMGB1 challenge (TLR4 [2]) | inhibition of TLR4-mediated NFkB upregulation after LPS challenge (hTLR4) | increase in IL-6 expression (TLR4 [3]) [fold] | IC50 (TLR4 [4]) [nM] | protection from LPS challenge (IL-6 expression) (TLR4 [1]) | inhibition of LPS-mediated inflammation (TLR4 [1]; immediately after treatment) | cure time and glycemic control, islet dose titration ([5]; 100 TAK-242-treated islets) | mean nonfasting blood glucose ([5]; 100 islets, 4 weeks) | mean time to cure ([5]; 100 islets, cured = two consecutive glucose measurements below 200 mg/dL) [days] | cure time and glycemic control, islet dose titration ([5]; 200 and 150 TAK-242-treated islets) | toxicity to beta cells (MTT viability) (MIN6 cells) | CXCL10 gene expression (TLR4 [6]; 3 μM TAK-242 pretreatment 30 min, 24 h after 2 μg/mL LPS, LPS alone 26-fold) [fold] | CCL2 gene expression (TLR4 [6]; 3 μM TAK-242 pretreatment 30 min, 24 h after 2 μg/mL LPS, LPS alone 55-fold) [fold] | proinflammatory cytokines IL-6, CXCL1, CXCL10, CCL2, TNF-α in culture media (TLR4 [6]; TAK-242 pretreatment, 24 h after LPS challenge, versus LPS alone) | half-life [7] [h]
O=C(CCC(=O)N1Cc2ccccc2C#Cc2ccccc21)NCCOCCOCCOCCOCCC(=O)ON1C(=O)CCC1=O [NHS-PEG4-DBCO, dibenzocyclooctyne-PEG4-N-hydroxysuccinimidyl ester] | no protection against LPS-mediated inflammation | – | – | – | – | – | – | – | – | – | – | – | – | – | – | –
CCOC(=O)C1=CCCCC1S(=O)(=O)Nc1ccc(F)cc1Cl (stereo not shown) [TAK-242, ethyl 6-(N-(2-chloro-4-fluorophenyl)sulfamoyl)cyclohex-1-ene-1-carboxylate] | – | protection of mouse islets against rHMGB1-mediated TLR4 inflammation | completely blocked LPS; also recorded: completely inhibited the upregulation of NFkB | ~32 | 1 to 33 | beings to lose its effectiveness by 24 h; also recorded: provided protection from TLR4-mediated inflammation 24 hours post treatment | completely inhibit LPS-mediated inflammation | delayed cure time and exhibited significant average glycemic lability | demonstrated some control | 21.0 ± 4.9 | quick cure times and good glycemic control | negligible toxicity | 0.91 | 1.01 | significantly lower levels of these cytokines | –
CCOC(=O)C1=CCCCC1S(=O)(=O)N(C(=O)OC(CCCCCN=[N+]=[N-])CS(=O)(=O)c1ccccc1)c1ccc(F)cc1Cl (stereo not shown) [TAK-PhSO2-Linker] | – | – | negligible TLR4-antagonist activity; also recorded: provided no protection; also recorded: no significant protection | ~3 | – | significantly protected from LPS challenge; also recorded: significantly better than that of free TAK-242 alone; also recorded: significantly protected against LPS-mediated inflammation | – | – | – | – | – | – | – | – | – | ~25
